Earlier results in patent US8906604B2, “Store-operated calcium cellular assay” (National Center for Biological Sciences, priority 2009, dated 2014).

Conditions: in Drosophila S2 cells; published value (Hardie et al. 1996); read-out: Kd value for Indo-1

Kd: 1160 nM
SMILES: Cc1ccc(N(CC(=O)O)CC(=O)O)c(OCCOc2cc(-c3cc4ccc(C(=O)O)cc4[nH]3)ccc2N(CC(=O)O)CC(=O)O)c1 [Indo-1]
